In paper PMC6235670, “An mTOR Signaling Modulator Suppressed Heterotopic Ossification of Fibrodysplasia Ossificans Progressiva” (Stem Cell Reports, 2018):

Legend:
FOP-iMSCs [1] = assay: Microarray / pathway analysis of activin A-induced chondrogenesis of FOP-iMSCs; assay type: cell-based, human; conditions: 100 nM, 100 ng/mL Activin-A, 7 days, microarray, N = 1
Experimental: Microarray experiments. 2D chondrogenic induction was performed in FOP-iMSCs stimulated with or without 100 ng/mL Activin-A, TAK 165, CP-724714 and Lapatinib. Seven days after incubation, mRNA was extracted. RNA was reverse transcribed, biotin-labeled and hybridized to GeneChip Human Gene 1.0 ST Expression Array, which was subsequently washed and scanned according to the manufacturer’s instructions (Affymetrix). Raw CEL files were imported into GeneSpring GX 12.6.1 software (Agilent Technologies), and expression values were calculated with the RMA16 algorithm. Pathway analysis was performed by Ingenuity pathway analysis (Qiagen). […]

FOP-iMSCs [2] = assay: 2D chondrogenic induction of FOP-iMSCs with activin A (GAG, Alcian blue); assay type: cell-based, human; conditions: activin A, 7 days, 100 nM and 1 µM
ATDC5/FOP-ACVR1 cells [3] = assay: ALP assay (HTS and dose-response) in ATDC5/FOP-ACVR1; assay type: cell-based, mouse; conditions: same protocol as HTS (72 h)
[4] = AlamarBlue viability assay in ATDC5/FOP-ACVR1; conditions: mouse, ATDC5 cells stably expressing FOP-ACVR1 (ATDC5/FOP-ACVR1)
Experimental: (§1) Generation of ATDC5 stably expressing ACVR1. WT - or FOP-ACVR1 was inserted into doxycycline (Dox)- […]
(§2) (KW111/WT-ACVR1 or KW111/FOP-ACVR1). KW111/WT-ACVR1 or KW111/FOP-ACVR1 and PBaseII […]
(§3) FuGeneHD® (Promega) according to the manufacturer’s protocol, and the neomycin- resistant population (500 µg/mL) was selected. Further selection was performed by selecting a mCherry high positive population (< 5%) after six hours of Dox treatment, sorting it with fluorescent-activated cell sorting (FACS) using AriaII (BD) according to the manufacturer’s protocol, and designating it as ATDC5/WT-ACVR1 or ATDC5/FOP-ACVR1.
(§4) KW111 included PB, active transposable PB elements; TRE-mCMVP, Tetracycline Response Element and a minimal CMV promoter; rtTA, reverse tetracycline-controlled transactivator. PBaseII was an expression plasmid vector containing the PB transposase cDNA with optimized codon usage to human under the control […]
(§5) HTS campaign and follow-up screens. ATDC5/FOP-ACVR1 cells were plated in 96-well white plates (2,000 cells/well/40 µ L, Corning) in DMEM/F-12 supplemented with 5% (v/v) FBS. […]
(§6) 37 °C under 5% CO2. After 3 days incubation, Alkaline Phosphatase activity (ALP) or AlamarBlue activity was measured using Amplite™ Colorimetric Alkaline Phosphatase Assay Kit (AAT Bioquest) or alamarBlue® Cell Viability Reagent (Thermo Fisher Scientific) according to the manufacturer’s protocol, respectively. T h e […]
(§7) was measured on POWERSCAN4 (DS Pharma Biomedical) or EnVision® Multilabel Reader (PerkinElmer).
(§8) Inhibitory effects of the screened compounds are given as percent inhibition, which was calculated using the following equation: (1-([Abs of compound] - [Abs of Min])/([Abs of Max] - [Abs of Min]))× 100, where [Abs of Max] and [Abs of Min] are the mean Abs of DMSO control and 1 µM DMH-1, respectively. The Z’ factor, which is widely used as a measure of the assay quality of each plate, was calculated using the following equation: Z’ factor = 1 - 3 × ([SD of Max] + [SD of Min])/([Abs of Max] - [Abs of Min]) (SI Appendix, Fig.
(§9) The S/B (signal-to-background) ratio was calculated using the following equation: ([Abs of Max]/[Abs of Min]) (SI Appendix, Fig. S3B).
(§10) Using ATDC5/FOP-ACVR1 cells, we performed a first screening (n=2; test compounds = 1 µM, Fig. […]

ATDC5/FOP-ACVR1 cells [5] = assay: AlamarBlue viability assay in ATDC5/FOP-ACVR1; conditions: AlamarBlue, ATDC5/FOP-ACVR1, 10 μM
Experimental: as §1, §2, §3, §4, §5, §6, §7, §8, §9, §10

mTOR signaling (p-S6) = assay: p-S6 western blotting during chondrogenic induction of FOP-iMSCs with activin A; assay type: cell-based, human; conditions: 1 μM
Experimental: Western blotting. SDS- PAGE and blotting with whole-cell lysates were performed by standard procedures.
Protein bands were detected with ECL Prime Western Blotting Detection Reagent (GE Healthcare) and visualized using BIO-RAD Molecular Imager® Chemi-DocTM XRS+ with Image LabTM software (Bio-Rad).
All data (relative intensity) were corrected by β-actin.
Antibodies for western blotting and immunostaining.
N ame Company Cat. No Concentration
Human Activin RIA/ALK-2 Antibody R&D Systems) AF637 1:100
Anti-human Vimentin antibody Abcam ab16700 1:40
Collagen I Antibody Novus NB600- 1:100
Anti-rabbit IgG, HRP-linked Antibody Cell Signaling #7074 1:10000 […]
2nd Goat anti-Rabbit IgG (H+L) Secondary Antibody, Invitrogen A-11008 1:100 antibody Alexa Fluor® 488 conjugate
Goat anti-Rabbit IgG (H+L) Secondary Antibody, Invitrogen A-21428 1:500

SMILES: CS(=O)(=O)CCNCc1ccc(-c2ccc3ncnc(Nc4ccc(OCc5cccc(F)c5)c(Cl)c4)c3c2)o1 [lapatinib]
- ADAMTS5 expression ratio to the TAK 165-treated group (FOP-iMSCs [1]): 2.1
- BMP4 expression ratio to the TAK 165-treated group (FOP-iMSCs [1]): 0.4
- DKK1 expression ratio to the TAK 165-treated group (FOP-iMSCs [1]): 2.1
- FOS expression ratio to the TAK 165-treated group (FOP-iMSCs [1]): 2.4
- FRZB expression ratio to the TAK 165-treated group (FOP-iMSCs [1]): 3.0
- FZD3 expression ratio to the TAK 165-treated group (FOP-iMSCs [1]): 0.4
- ITGA3 expression ratio to the TAK 165-treated group (FOP-iMSCs [1]): 2.5
- ITGB3 expression ratio to the TAK 165-treated group (FOP-iMSCs [1]): 3.6
- MMP1 expression ratio to the TAK 165-treated group (FOP-iMSCs [1]): 3.0
- MMP13 expression ratio to the TAK 165-treated group (FOP-iMSCs [1]): 6.9
- PIK3R3 expression ratio to the TAK 165-treated group (FOP-iMSCs [1]): 2.1
- SPP1 expression ratio to the TAK 165-treated group (FOP-iMSCs [1]): 3.7
- TNFRSF11B expression ratio to the TAK 165-treated group (FOP-iMSCs [1]): 0.5
- WIF1 expression ratio to the TAK 165-treated group (FOP-iMSCs [1]): 0.1
- WNT16 expression ratio to the TAK 165-treated group (FOP-iMSCs [1]): 0.5
- effect on GAG in the chondrogenesis of FOP-iMSCs (ERBB2 kinase inhibitors) (FOP-iMSCs [2]): no effect

SMILES: C=C1/C(=C\C=C2/CCC[C@]3(C)[C@@H]([C@H](C)/C=C/[C@@H](O)C4CC4)CC[C@@H]23)C[C@@H](O)C[C@@H]1O [Calcipotriol]
- IC50 (ATDC5/FOP-ACVR1 cells [3]; Mus musculus): 0.3 nM
- viability at 3 days, 10 µM [4]: 80%

SMILES: CC(C)(C)n1nc(-c2cccc3ccccc23)c2c(N)ncnc21 [1-Naphthyl PP1]
- IC50 (ATDC5/FOP-ACVR1 cells [3]): 12200 nM
- Viability (%) @10 μM (ATDC5/FOP-ACVR1 cells [5]): 83%

SMILES: Cn1c(=O)n(-c2ccc(C(C)(C)C#N)cc2)c2c3cc(-c4cnc5ccccc5c4)ccc3ncc21 [BEZ235]
- IC50 (ATDC5/FOP-ACVR1 cells [3]; Mus musculus): 87 nM
- viability at 3 days, 10 µM [4]: 21%

SMILES: CCc1c2c(nc3ccc(O)cc13)-c1cc3c(c(=O)n1C2)COC(=O)[C@]3(O)CC [SN 38]
- IC50 (ATDC5/FOP-ACVR1 cells [3]): 98 nM
- Viability (%) @10 μM (ATDC5/FOP-ACVR1 cells [5]): 17%

SMILES: Cc1ccc(-n2nc(C(C)(C)C)cc2NC(=O)Nc2ccc(OCCN3CCOCC3)c3ccccc23)cc1 [BIRB 796]
- IC50 (ATDC5/FOP-ACVR1 cells [3]; Mus musculus): 9 nM
- viability at 3 days, 10 µM [4]: 99%

SMILES: COCC(=O)NC/C=C/c1ccc2ncnc(Nc3ccc(Oc4ccc(C)nc4)c(C)c3)c2c1 [CP-724714]
- p-S6 after 24-hr stimulation (mTOR signaling (p-S6); 24 hr): no effects
- p-S6 after 7 days of stimulation (mTOR signaling (p-S6); 7 days): not
- ADAMTS5 expression ratio to the TAK 165-treated group (FOP-iMSCs [1]): 3.1
- BMP4 expression ratio to the TAK 165-treated group (FOP-iMSCs [1]): 5.2
- DKK1 expression ratio to the TAK 165-treated group (FOP-iMSCs [1]): 0.2
- FOS expression ratio to the TAK 165-treated group (FOP-iMSCs [1]): 3.2
- FRZB expression ratio to the TAK 165-treated group (FOP-iMSCs [1]): 3.6
- FZD3 expression ratio to the TAK 165-treated group (FOP-iMSCs [1]): 0.3
- ITGA3 expression ratio to the TAK 165-treated group (FOP-iMSCs [1]): 3.9
- ITGB3 expression ratio to the TAK 165-treated group (FOP-iMSCs [1]): 3.3
- MMP1 expression ratio to the TAK 165-treated group (FOP-iMSCs [1]): 11.5
- MMP13 expression ratio to the TAK 165-treated group (FOP-iMSCs [1]): 5.4
- PIK3R3 expression ratio to the TAK 165-treated group (FOP-iMSCs [1]): 0.4
- SPP1 expression ratio to the TAK 165-treated group (FOP-iMSCs [1]): 4.4
- TNFRSF11B expression ratio to the TAK 165-treated group (FOP-iMSCs [1]): 3.4
- WIF1 expression ratio to the TAK 165-treated group (FOP-iMSCs [1]): 0.1
- WNT16 expression ratio to the TAK 165-treated group (FOP-iMSCs [1]): 3.0
- effect on GAG in the chondrogenesis of FOP-iMSCs (ERBB2 kinase inhibitors) (FOP-iMSCs [2]): no effect
